Patent US10765625B2, “Knottin-drug conjugates and methods of using the same” (THE BOARD OF TRUSTEES OF THE LELAND STANFORD JUNIOR …, priority 2016, dated 2020)
Read-outs that look alike come from different tables or passages of the source.

Tests used:
U87MG cells [1] = assay: Integrin-blocking competition: cell proliferation (CCK-8) after pre-treatment with EETI-2.5F (1); format: cell-based; conditions: 1 μM 1, 3 h pre-treatment and co-treatment
Procedure: (§1) U87MG, and PANC-1 cells were grown in Dulbecco's Modified Eagle Medium (DMEM) with 10% fetal bovine serum (FBS) and 1% penicillin/streptomycin. MDA-MB-468 cells were grown in DMEM and Ham's F-12 medium (DMEM/F12) with 10% FBS and 1% penicillin/streptomycin. A2780 and BxPC3 cells were grown in Roswell Park Memorial Institute medium (RPMI) 1640+L-glutamine, with 10% FBS and 1% penicillin/streptomycin. D270 cells were grown in MEM (Richter's modification, no phenol red) with 10% FBS and 0.1% Gentamicin. Unless otherwise specified, cells were incubated at 37° C., 5% CO2. Flow cytometry was performed using an EMD Millpore Guava EasyCyte 8HT flow cytometer and the resulting data were evaluated using FlowJo software provided by TreeStar, Inc. Cell proliferation was measured using the Dojindo Cell Counting Kit-8 by replacing the media in each well with 100 μL of media containing 10% WST-8. After incubation for 1 h at 37° C., absorbance, A, at 450 nm was measured with a BioTek Synergy H4 microtiter plate reader. The background signal of CCK-8 alone was subtracted from all samples. Cell proliferation was then expressed as a percentage of absorbance relative to the control of untreated cells (Equation 2). Nonlinear regression analysis was performed using GraphPad Prism.
One possible explanation for the apparent hENT1-independence of 5d is that its route of internalization could be integrin-mediated. The role of integrin-binding in the biological potency and hENT1-independence of 5d was determined. A competition experiment was carried out in which U87MG cells were pre-treated with unconjugated EETI-2.5F (1) in order to block integrins on the cell surface. The role of integrin-binding was studied by measuring the proliferation of U87MG cells that had been pre-treated with EETI-2.5F (1) when exposed to increasing doses of 3 and KDCs 5a, 5c, and 5d. […] Media used to prepare varying concentrations of drug, protein, or protein-drug conjugate also contained 1 μM of 1. Prior to treatment, cells were incubated for 3 h at 37° C., 5% CO2 with fresh media containing 1 μM 1. After this pre-treatment, cells were incubated with varying concentrations of 5a, 5c, or 5d for 24 h and then media was replaced with fresh media and cells were incubated for an additional 48 h. Cell proliferation was measured using the Cell Counting Kit-8 by replacing the media in each well with 100 μL of media containing 10% WST-8. After incubation for 1 h at 37° C., absorbance at 450 nm was measured with a Synergy H4 microtiter plate reader. Cell proliferation was measured according to the method described in Section 1.3. Error bars represent the standard deviation of experiments performed in triplicate.

U87MG cells [2] = assay: Competition binding assay with AF488-labeled EETI-2.5F (AF488-1), flow cytometry; conditions: competition with 1 nM AF488-1, 4° C., 3 hours, read-out: IC50 (nM), binding affinity
Procedure: Once the knottin-drug conjugates 5a-d were prepared, their binding affinity to U87MG glioblastoma cells, which are known to have elevated expression of tumor-associated integrins, was tested. […] To measure the relative binding affinities of knottins 1 and 2 and KDCs 5a-d, competition binding assays were performed using AlexaFluor 488-conjugated EETI-2.5F (AF488-1) as previously described (J. W. Kim, et al., J. Am. Chem. Soc. 2015, 137, 6-9). Cells (5×10^4 per sample) were detached with 0.05% Trypsin-EDTA, washed with IBB (25 mM Tris pH 7.4, 150 mM NaCl, 2 mM CaCl2, 1 mM MgCl2, 1 mM MnCl2, and 0.1% bovine serum albumin), and incubated with 1 nM AF488-1 and varying concentrations of competitors in 800 μL of IBB at 4° C. for 3 hours. The cells were washed twice with 800 μL of PBSA (phosphate buffered saline containing 0.1% bovine serum albumin) and the fluorescence of the surface-bound AF488-1 was determined using flow cytometry. The fluorescence was normalized to that of cells treated with AF488-1 alone to obtain the fraction bound. Half-maximal inhibitory concentration (IC50) values were determined by nonlinear regression analysis. Error bars represent the standard deviation of experiments performed in triplicate.

U87MG cells [3] = assay: Cell proliferation, CCK-8 colorimetric assay; format: cell-based
Procedure: as §1
Next, the potency of each KDC was tested in a cell-proliferation experiment. […] Cells were seeded in a 96-well plate at a density of 2,500 cells per well and grown overnight at 37° C., 5% CO2 in DMEM with 10% FBS and 1% penicillin/streptomycin. Cells were subsequently treated with 100 μL of fresh media, containing varying concentrations of drug, protein, or protein-drug conjugate and incubated for 4 d at 37° C., 5% CO2. Cell proliferation was measured according to the method described in Section 1.3. Error bars represent the standard deviation of experiments performed in triplicate. […] Given that the linker must be cleaved to release free Gemcitabine in order for the payload to become active, the low potency of 5b can be explained by the greater stability of the carbamate group as compared to the other linkers tested.

U87MG cells [4] = assay: Premature drug release study: cell proliferation (CCK-8) with hENT1 inhibitor 6 co-administered; format: cell-based; conditions: for Effect of hENT1 inhibitor 6 on potency (ED50) (in words): U87MG cells, increasing concentrations of 6 up to 10 μM; for Fold Increase in ED50 in U87MG Cells: ED50 with 6 / ED50 without 6, minus 1
Procedure: as §1
The relative extent of premature drug-release in the cases of 5a, 5c, and 5d was next determined in order to identify the linker best-suited for delivering the drug payload intracellularly. An established technique for blocking the cellular uptake of Gemcitabine by using S (4-nitrobenzyl)-6-thioinosine (6) was employed, which is known to inhibit human equilibrative nucleoside transporters, such as hENT1. Because hENT1 is a critical regulator of the cellular internalization of Gemcitabine, it was reasoned that by inhibiting its activity with 6, the cytotoxic effect of any drug payload that was released in the extracellular environment could be diminished. It was anticipated that this would allow the distinction between KDCs that were potent due to the undesirable release of Gemcitabine outside of the cell from those that released Gemcitabine intracellularly (FIG. 6). The extent of premature drug release in the extracellular environment was studied by inhibiting activity of nucleoside transporters (such as hENT1) of U87MG cells through the use of the hENT1 inhibitor S-(4-nitrobenzyl)-6-thioinosine (6). […] In a similar fashion, it was expected that for KDCs which released a significant amount of the drug payload in the extracellular environment, an increase in the concentration of 6 should result in a concomitant increase in ED50 value.
Media used to prepare varying concentrations of drug, protein, or protein-drug conjugate also contained varying concentrations of the hENT1 inhibitor, 6. Additionally, prior to treatment, cell were incubated at 37° C., 5% CO2 with fresh media containing the varying concentrations of 6 for 2 h. Cell proliferation was measured using the Cell Counting Kit-8 by replacing the media in each well with 100 μL of media containing 10% WST-8. After incubation for 1 h at 37° C., absorbance at 450 nm was measured with a Synergy H4 microtiter plate reader. ED50 values were determined by nonlinear regression analysis. Example dose-response curves for 3 (FIG. 7) and 5d (FIG. 8) are provided. Cell proliferation was measured according to the method described in Section 1.3. Error bars represent the standard deviation of experiments performed in triplicate.
These values were normalized as Fold Increase in ED50 (defined in Equation 2) by dividing the ED50 of each drug when 6 was co-administered at concentration=C by the ED50 of that same drug when no 6 was added, then subtracting 1 (thus, a “0-fold increase” would mean no increase, while a “1-fold increase” would mean that the ED50 value had doubled). Fold Increase in ED50 for each drug at each concentration of 6 is provided in Table 5, and these values were used to generate FIG. 9.

[5] = system: A2780 ovarian cancer cells; assay: Cell proliferation, CCK-8 colorimetric assay; format: cell-based; conditions: Homo sapiens, 96 h, 4 d after treatment, read-out: ED50 (nM), cell growth inhibition
Procedure: as §1
(§2) Having identified KDC 5d as a potent inhibitor of U87MG cells with desirable payload-release properties, its efficacy against a variety of other cell lines in comparison with Gemcitabine (3) was next tested. Cells were seeded in a 96-well plate at a density of 2,500 cells per well and grown overnight at 37° C., 5% CO2 in the media described in Section 1.3. Cells were subsequently treated with 100 μL of fresh media, containing 50 nM of 3 or 5d. Cells were incubated at 37° C., 5% CO2 for 4 d. Cell proliferation was measured using the Cell Counting Kit-8 by replacing the media in each well with 100 μL of media containing 10% WST-8. After incubation for 1 h at 37° C., absorbance at 450 nm was measured with a Synergy H4 microtiter plate reader. Cell proliferation was measured according to the method described in Section 1.3. Error bars represent the standard deviation of experiments performed in triplicate.

[6] = system: PANC-1 pancreatic cancer cells; assay: Cell proliferation, CCK-8 colorimetric assay; format: cell-based; conditions: Homo sapiens, 96 h, 4 d after treatment, read-out: ED50 (nM), cell growth inhibition
Procedure: as §1, §2

D270 glioblastoma cells = assay: Cell proliferation, CCK-8 colorimetric assay; format: cell-based; conditions: 96 h, 4 d after treatment, read-out: ED50 (nM), cell growth inhibition
Procedure: as §1, §2

[7] = system: MDA-MB-468 breast cancer cells; assay: Cell proliferation, CCK-8 colorimetric assay; format: cell-based; conditions: Homo sapiens, MDA-MB-468, 96 h, 4 d after treatment, read-out: ED50 (nM), cell growth inhibition
Procedure: as §1, §2

[8] = system: BxPC3 pancreatic cancer cells; assay: Cell proliferation, CCK-8 colorimetric assay; format: cell-based; conditions: Homo sapiens, BXPC-3, 96 h, 4 d after treatment, read-out: ED50 (nM), cell growth inhibition
Procedure: as §1, §2

Row | SMILES | Effect of integrin blocking by pre-treatment with 1 on potency (in words) (U87MG cells [1]) | IC50 (U87MG cells [2]) | Potency / growth inhibition in U87MG cells (in words) (U87MG cells [3]; U87MG cells, 4 d) | EC50 (U87MG cells [3]; U87MG cells, 4 d incubation, vs untreated control, read-out: ED50 (nM), potency) | Effect of hENT1 inhibitor 6 on potency (ED50) (in words) (U87MG cells [4]) | Fold Increase in ED50 in U87MG Cells (U87MG cells [4]; [6] = 0 nM) | Fold Increase in ED50 in U87MG Cells (U87MG cells [4]; [6] = 1 nM) | Fold Increase in ED50 in U87MG Cells (U87MG cells [4]; [6] = 10 nM) | Fold Increase in ED50 in U87MG Cells (U87MG cells [4]; [6] = 100 nM) | Fold Increase in ED50 in U87MG Cells (U87MG cells [4]; [6] = 1000 nM) | Fold Increase in ED50 in U87MG Cells (U87MG cells [4]; [6] = 10000 nM) | EC50 (U87MG cells [3]; Homo sapiens, U-87 MG, 96 h, U87MG cells, 4 d incubation, vs untreated control, read-out: ED50 (nM), potency) | EC50 (U87MG cells [3]; Homo sapiens, U-87 MG, 96 h, U87MG glioblastoma, 4 d after treatment, read-out: ED50 (nM), cell growth inhibition) | EC50 [5] | EC50 [6] | EC50 (D270 glioblastoma cells) | EC50 [7] | EC50 [8]
1 | CC(C)C[C@@H]1NC(=O)[C@@H]2CSSC[C@@H](C(=O)NCC(=O)O)NC(=O)[C@H](Cc3ccccc3)NC(=O)CNC(=O)[C@H](CC(N)=O)NC(=O)[C@@H]3CCCN3C(=O)CNC(=O)[C@@H]3CSSC[C@H](NC(=O)[C@H]([C@@H](C)O)NC(=O)[C@H](CC(C)C)NC(=O)[C@@H]4CCCN4C(=O)[C@@H]4CCCN4C(=O)[C@H](CC(N)=O)NC(=O)[C@H](CC(=O)O)NC(=O)CNC(=O)[C@H](CCCNC(=N)N)NC(=O)[C@@H]4CCCN4C(=O)[C@H](CCCNC(=N)N)NC(=O)[C@@H]4CCCN4C(=O)[C@@H](NC(=O)CN)CSSC[C@H](NC(=O)CNC(=O)[C@H](C)NC1=O)C(=O)N[C@@H](C(C)C)C(=O)N3)C(=O)N[C@@H](CCCn1cc(CCC(=O)Nc3ccn([C@@H]4O[C@H](CO)[C@@H](O)C4(F)F)c(=O)n3)nn1)C(=O)N[C@@H](CCC(N)=O)C(=O)N[C@@H](CC(=O)O)C(=O)N[C@@H](CO)C(=O)N[C@@H](CC(=O)O)C(=O)N2 [5c] | did not diminish the potency | 2.8 ± 0.2 nM | low-nanomolar ED50 values | 8.9 ± 1.2 nM | much less sensitive | 0 | 0.5 ± 0.2 | 1.0 ± 0.2 | 7.8 ± 4.8 | 18.0 ± 5.2 | 31.1 ± 5.1 | – | – | – | – | – | – | –
2 | Nc1ccn([C@@H]2O[C@H](CO)[C@@H](O)C2(F)F)c(=O)n1 [compound 3, Gemcitabine, reference compound] | no effect on potency | – | – | – | increased significantly | 0 | 0.2 ± 0.4 | 1.5 ± 0.1 | 15.8 ± 0.3 | 44.7 ± 0.3 | 128.6 ± 2.8 | 1.1 ± 1.4 nM | 1.7 ± 1.4 nM | 0.5 ± 0.02 nM | 52.8 ± 4.9 nM | 1.5 ± 0.4 nM | 17.3 ± 6.8 nM | 18.4 ± 1.3 nM
